Experimental data published in ChEMBL document CHEMBL1201862, “PubChem BioAssay data set” (2004).
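In this assay, cells in 96-well plates receive the compound at five concentrations for 48 hours. Endpoints are linearly interpolated between the surrounding concentrations. GI50 is the concentration that inhibits growth by half.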 Active and inactive are the calls of the source. Cut-off read from the data, not from the text of the source: active = GI50 up to about 1.1 µM and inactive = higher.

Key:
Assay in all cases: inhibition of tumour cell growth, NCI panel, 48 h
786-0 = system: 786-0
A498 = system: A498
A549 = system: A549
CAKI-1 = system: CAKI-1
CCRF-CEM = system: CCRF-CEM
COLO 205 = system: COLO 205
DLD-1 = system: DLD-1
DMS-114 = system: DMS-114
DMS-273 = system: DMS-273
EKVX = system: EKVX
HCC 2998 = system: HCC 2998
HCT-116 = system: HCT-116
HCT-15 = system: HCT-15
HL-60 = system: HL-60
HOP-62 = system: HOP-62
HOP-92 = system: HOP-92
HT-29 = system: HT-29
IGROV-1 = system: IGROV-1
K562 = system: K562
KM12 = system: KM12
LOX IMVI = system: LOX IMVI
LXFL 529 = system: LXFL 529
M14 = system: M14
M19-MEL = system: M19-MEL
MOLT-4 = system: MOLT-4
Malme-3M = system: Malme-3M
NCI-H23 = system: NCI-H23
NCI-H460 = system: NCI-H460
NCI-H522 = system: NCI-H522
OVCAR-3 = system: OVCAR-3
OVCAR-4 = system: OVCAR-4
OVCAR-8 = system: OVCAR-8
RPMI-8226 = system: RPMI-8226
RXF 393 = system: RXF 393
RXF 631 = system: RXF 631
SF-268 = system: SF-268
SF-295 = system: SF-295
SF-539 = system: SF-539
SK-MEL-28 = system: SK-MEL-28
SK-MEL-2 = system: SK-MEL-2
SK-MEL-5 = system: SK-MEL-5
SK-OV-3 = system: SK-OV-3
SN12C = system: SN12C
SNB-19 = system: SNB-19
SNB-75 = system: SNB-75
SNB-78 = system: SNB-78
SW-620 = system: SW-620
TK-10 = system: TK-10
U-251 = system: U-251
UACC-257 = system: UACC-257
UACC-62 = system: UACC-62
UO-31 = system: UO-31
XF498 = system: XF498
ACHN = system: ACHN
HOP-18 = system: HOP-18
KM-20L2 = system: KM-20L2
NCI-H226 = system: NCI-H226
OVCAR-5 = system: OVCAR-5
SR = system: SR

O=C1C=C2CCCC2C(C(=O)O)(C(=O)O)C1 (stereo not given)
GI50 (786-0): > 100 µM (inactive)
GI50 (A498): > 100 µM (inactive)
GI50 (A549): > 100 µM (inactive)
GI50 (CAKI-1): > 100 µM (inactive)
GI50 (CCRF-CEM): > 100 µM (inactive)
GI50 (COLO 205): > 100 µM (inactive)
GI50 (DLD-1): > 100 µM (inactive)
GI50 (DMS-114): > 100 µM (inactive)
GI50 (DMS-273): > 100 µM (inactive)
GI50 (EKVX): > 100 µM (inactive)
GI50 (HCC 2998): > 100 µM (inactive)
GI50 (HCT-116): > 100 µM (inactive)
GI50 (HCT-15): > 100 µM
GI50 (HL-60): > 100 µM (inactive)
GI50 (HOP-62): > 100 µM (inactive)
GI50 (HOP-92): > 100 µM (inactive)
GI50 (HT-29): > 100 µM (inactive)
GI50 (IGROV-1): > 100 µM (inactive)
GI50 (K562): > 100 µM (inactive)
GI50 (KM12): > 100 µM (inactive)
GI50 (LOX IMVI): > 100 µM (inactive)
GI50 (LXFL 529): > 100 µM (inactive)
GI50 (M14): > 100 µM (inactive)
GI50 (M19-MEL): > 100 µM (inactive)
GI50 (MOLT-4): > 100 µM (inactive)
GI50 (Malme-3M): > 100 µM (inactive)
GI50 (NCI-H23): > 100 µM (inactive)
GI50 (NCI-H460): > 100 µM (inactive)
GI50 (NCI-H522): > 100 µM (inactive)
GI50 (OVCAR-3): > 100 µM (inactive)
GI50 (OVCAR-4): > 100 µM (inactive)
GI50 (OVCAR-8): > 100 µM (inactive)
GI50 (RPMI-8226): > 100 µM (inactive)
GI50 (RXF 393): > 100 µM (inactive)
GI50 (RXF 631): > 100 µM (inactive)
GI50 (SF-268): > 100 µM (inactive)
GI50 (SF-295): > 100 µM (inactive)
GI50 (SF-539): > 100 µM (inactive)
GI50 (SK-MEL-28): > 100 µM (inactive)
GI50 (SK-MEL-2): > 100 µM (inactive)
GI50 (SK-MEL-5): > 100 µM (inactive)
GI50 (SK-OV-3): > 100 µM (inactive)
GI50 (SN12C): > 100 µM (inactive)
GI50 (SNB-19): > 100 µM (inactive)
GI50 (SNB-75): > 100 µM (inactive)
GI50 (SNB-78): > 100 µM (inactive)
GI50 (SW-620): > 100 µM (inactive)
GI50 (TK-10): > 100 µM (inactive)
GI50 (U-251): > 100 µM (inactive)
GI50 (UACC-257): > 100 µM (inactive)
GI50 (UACC-62): > 100 µM (inactive)
GI50 (UO-31): > 100 µM (inactive)
GI50 (XF498): > 100 µM (inactive)

N#CC12C3C4CC5C6C4C1C6C(O)(C53)N2Cc1ccccc1 (stereo not given)
GI50 (786-0): > 100 µM (inactive)
GI50 (A498): > 100 µM (inactive)
GI50 (A549): > 100 µM (inactive)
GI50 (ACHN): > 100 µM (inactive)
GI50 (CAKI-1): > 100 µM (inactive)
GI50 (CCRF-CEM): > 100 µM (inactive)
GI50 (COLO 205): > 100 µM (inactive)
GI50 (DLD-1): > 100 µM (inactive)
GI50 (DMS-114): > 100 µM (inactive)
GI50 (DMS-273): > 100 µM (inactive)
GI50 (EKVX): > 100 µM (inactive)
GI50 (HCC 2998): > 100 µM (inactive)
GI50 (HCT-116): > 100 µM (inactive)
GI50 (HCT-15): > 100 µM
GI50 (HL-60): > 100 µM (inactive)
GI50 (HOP-18): > 100 µM (inactive)
GI50 (HOP-62): > 100 µM (inactive)
GI50 (HOP-92): > 100 µM (inactive)
GI50 (HT-29): > 100 µM (inactive)
GI50 (IGROV-1): > 100 µM (inactive)
GI50 (K562): > 100 µM (inactive)
GI50 (KM-20L2): > 100 µM (inactive)
GI50 (KM12): > 100 µM (inactive)
GI50 (LOX IMVI): > 100 µM (inactive)
GI50 (LXFL 529): > 100 µM (inactive)
GI50 (M14): > 100 µM (inactive)
GI50 (MOLT-4): > 100 µM (inactive)
GI50 (Malme-3M): > 100 µM (inactive)
GI50 (NCI-H226): > 100 µM (inactive)
GI50 (NCI-H23): > 100 µM (inactive)
GI50 (NCI-H460): > 100 µM (inactive)
GI50 (NCI-H522): > 100 µM (inactive)
GI50 (OVCAR-3): > 100 µM (inactive)
GI50 (OVCAR-4): > 100 µM (inactive)
GI50 (OVCAR-5): > 100 µM (inactive)
GI50 (OVCAR-8): > 100 µM (inactive)
GI50 (RPMI-8226): > 100 µM (inactive)
GI50 (RXF 393): > 100 µM (inactive)
GI50 (RXF 631): > 100 µM (inactive)
GI50 (SF-268): > 100 µM (inactive)
GI50 (SF-295): > 100 µM (inactive)
GI50 (SF-539): > 100 µM (inactive)
GI50 (SK-MEL-28): > 100 µM (inactive)
GI50 (SK-MEL-2): > 100 µM (inactive)
GI50 (SK-MEL-5): > 100 µM (inactive)
GI50 (SK-OV-3): > 100 µM (inactive)
GI50 (SN12C): > 100 µM (inactive)
GI50 (SNB-19): > 100 µM (inactive)
GI50 (SNB-75): > 100 µM (inactive)
GI50 (SR): > 100 µM (inactive)
GI50 (SW-620): > 100 µM (inactive)
GI50 (TK-10): > 100 µM (inactive)
GI50 (U-251): > 100 µM (inactive)
GI50 (UACC-257): > 100 µM (inactive)
GI50 (UACC-62): > 100 µM (inactive)
GI50 (UO-31): > 100 µM (inactive)
GI50 (XF498): > 100 µM (inactive)
